Results taken from PubChem BioAssay (NCI).
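These data come from cells grown in 96-well plates and exposed to compound for 48 hours at five concentrations. At the GI50, growth is halved. TGI denotes the concentration required for complete inhibition of growth.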

What was measured:
Assay in all cases: NCI anticancer screen, dose series, 48 h
M14 melanoma = test system: M14 melanoma
NCI-H23 lung = test system: NCI-H23 lung
MDA-MB-231 breast = test system: MDA-MB-231 breast
SK-MEL-28 melanoma = test system: SK-MEL-28 melanoma
HL-60(TB) leukemia = test system: HL-60(TB) leukemia
IGROV1 ovarian = test system: IGROV1 ovarian
LOX IMVI melanoma = test system: LOX IMVI melanoma
UACC-62 melanoma = test system: UACC-62 melanoma
K-562 leukemia = test system: K-562 leukemia
RXF 393 renal = test system: RXF 393 renal

SMILES	GI50 (M14 melanoma) [µM]	TGI (M14 melanoma) [µM]	GI50 (NCI-H23 lung) [µM]	TGI (NCI-H23 lung) [µM]	GI50 (MDA-MB-231 breast) [µM]	TGI (MDA-MB-231 breast) [µM]	GI50 (SK-MEL-28 melanoma) [µM]	TGI (SK-MEL-28 melanoma) [µM]	GI50 (HL-60(TB) leukemia) [µM]	TGI (HL-60(TB) leukemia) [µM]	GI50 (IGROV1 ovarian) [µM]	TGI (IGROV1 ovarian) [µM]	GI50 (LOX IMVI melanoma) [µM]	TGI (LOX IMVI melanoma) [µM]	TGI (UACC-62 melanoma) [µM]	TGI (K-562 leukemia) [µM]	TGI (RXF 393 renal) [µM]	GI50 (UACC-62 melanoma) [µM]	GI50 (K-562 leukemia) [µM]	GI50 (RXF 393 renal) [µM]
COc1ccc(-c2n/c(=C\c3c(O)[nH]c4ccc(OC)cc34)cc3c2=Nc2ccccc2-3)cc1	1.98	3.59	1.89	3.97	1.73	4.27	1.9	3.32	10.3	32.5	12	> 100	19.9	75.4						
COc1ccc2nc(-c3cccs3)cc(C(O)CN3CCSCC3)c2c1 (stereo unspecified)		40.6		55.4				77.4		5.8		> 100		34.4	38.6	51.5	> 100			
COc1cc(C(=O)C/C(CCCC(=O)Nc2ccccc2[N+](=O)[O-])=N/NC(=O)c2cc3ccccc3cc2O)ccc1O		50.2		> 100				> 100		51.3		> 100		> 65.4	53.2	> 100	> 100			
Oc1cccc2ccc(N/N=C/c3cc(CN4CCCCC4)c(O)c4ncccc34)nc12			0.0485	1.45	0.0991	2.03	0.362	15.9	0.0345	1.29	0.173	18.4	0.0553	1.61	4.9	11.1		0.0459	0.0383	
CC1=C(C)C(=O)c2c(cc3ccccn23)C1=O		28.1		23.3				34		43.2		54.5		19.1	35.4	> 100	27.9			
CC1=C(Oc2ccccc2)C(CCC(=O)O)c2c(O)cc(Cl)c(O)c21 (stereo unspecified)		> 100		> 100				> 100		> 100		> 100		> 100		> 100	> 100			
C[C@@H]1C[C@H]2CC[C@H](O2)[C@H](C)C(=O)O[C@@H](C)C[C@@H]2CC[C@@H](O2)[C@@H](C)C(=O)O[C@H](C)C[C@H]2CC[C@H](O2)[C@H](C)C(=O)O[C@@H](C)C[C@@H]2CC[C@@H](O2)[C@@H](C)C(=O)O1		> 85						> 100		0.536		32.4		2.82	> 61.3	> 33.8	> 100			
Cc1ccc(NC(=O)C(=O)C(C#N)c2ccccc2C)cc1C (stereo unspecified)		> 100		> 100				> 100		> 85.8		> 100		> 55.3	> 100	> 70.1	> 100			
CC1(C)C(=NNC(=O)C[N+](C)(C)C)C(C)(C)C1=NNC(=O)C[N+](C)(C)C		> 100		> 100				> 100		> 100		> 100		> 100	> 100	> 100	> 100			
CSc1ccc(C2OC(=O)c3ccccc32)c2ccccc12 (stereo unspecified)		> 100						> 100		> 100		> 100		> 100	> 100	> 100	> 100			
CCN(CC)c1ccc(C(=O)c2ccccc2C(=O)O)c(O)c1		> 100		> 100				> 100		> 100		> 100		> 100	> 100	> 100	> 100			
CCCCCCCCCCCC(=O)OCC1OC(n2cc(F)c(=O)[nH]c2=O)C(NC(=O)OCc2ccccc2)C(OC(=O)CCCCCCCCCCC)C1O (stereo unspecified)		> 100		> 100				> 100				> 100		> 100	> 100	> 100	> 100			
O=[N+]([O-])C1C2C=CC(C2)[C@H]1c1ccco1 (stereo partly specified)		> 100		2.36						> 100		> 100		> 100	> 100	> 100	> 100			
CN(C)CCNc1c2c(c(NCCN(C)C)c3[nH]ccc13)C(=O)c1ccccc1C2=O	3.68	29.9	1.82				3.1	9.5	1.39		1.19	> 100	0.737	3.39	14.8		3.63	1.64	0.654	1.5
Cn1cc(-c2ccc3occ(-c4cccc(-c5ccncc5)c4)c3n2)cn1	0.457	> 100	1.26	> 100	1.62	> 100	1.77	> 100			0.592	> 100	0.564	> 100	> 100	> 100	4.44	0.478	0.284	0.661
C#CCOCn1cnc2c(Cl)ncnc21		> 100		> 100				> 100				> 100		> 100	> 100	> 100				
Cc1ccc(N=Cc2ccc3c(c2)OCO3)cc1C		> 100		> 100				> 100		> 100		> 100		> 100	> 100		> 100			
CC(C)[C@H]1CO[C@]2(C)[C@@H]3CN(Cc4ccccc4)C[C@@H]3C(=O)N12		> 100		> 100				> 100		> 100		> 100			> 100	> 100	> 100			
C1C[OH+]CC[OH+]CCNCC[OH+]CC[OH+]CCN1.N.[Cl-].[Pt+4]	5.31	23.6	1.8	12			11.1	35.7	1.61	> 100	4.55	34.7	7.66	28.4	14.9	> 100	12.3	3.39	12.7	2.49
O=C1[C@H]2ON(c3ccccc3)C(c3ccccc3Cl)[C@H]2C(=O)N1c1ccc(Cc2ccc(N3C(=O)[C@@H]4ON(c5ccccc5)C(c5ccccc5Cl)[C@@H]4C3=O)cc2)cc1 (stereo partly specified)		73.5		> 100				> 100		> 100		> 100		> 100	> 100	> 100				
